Legend:
[1] = system: LNCaP tumor-transplanted mouse; experiment: Internal radioactivity distribution using LNCaP tumor-transplanted mouse; assay type: in vivo
How it was run: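 Biodistribution is given as percent injected dose per gram of tissue, measured in blood and organs harvested at time points from 1 h to 192 h. Radiotracers were given by tail-vein injection in saline at 185–259 kBq, n=2–3. Hosts were male CB17 SCID mice carrying LNCaP or PC-3 tumours implanted s.c. in Matrigel 40–60 days earlier.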

[2] = system: PC-3 tumor-transplanted mouse; experiment: Internal radioactivity distribution using PC-3 tumor-transplanted mouse; assay type: in vivo
Method: (§1) The animal test was performed in compliance with the guidelines of Kyoto University Animal Experiment Committee. Male CB17/IcrJcl-Prkdc^scid mice were purchased from CLEA Japan, Inc. The animals were kept under 12 h/12 h, day/night cycle conditions and fed ad libitum with food and water. LNCaP cells (1.0×10^7 cells/mouse) or PC-3 cells (1.0×10^7 cells/mouse) were suspended in a mixture of PBS and Matrigel manufactured by Corning Life Sciences (1:1, 150 μL) and the suspension was subcutaneously transplanted to the right shoulder of mice under isoflurane anesthesia. Thereafter, the mice were kept for 40 to 60 days.
LNCaP or PC-3 tumor-implanted mice were administered saline solutions (185 kBq, 100 μL) of [^111In]In-PSMA-DA1 or [^111In]In-PSMA-DB from the tail vein (n=3 each). Mice were euthanized 1, 4, 24, 48, 96, and 192 hours after administration. Thereafter, blood and each organ were recovered, and the mass and radioactivity of the organs were measured.
The percentage (% ID) of the radioactivity amount to the administered radioactivity amount (injected dose) is shown as the value (% ID/g) divided by the blood mass or the organ mass (g).
as §1, with “LNCaP cells (4.3×10^6 cells/mouse) or” for “LNCaP cells (1.0×10^7 cells/mouse) or”, “PC-3 cells (3.3×10^6 cells/mouse) were” for “PC-3 cells (1.0×10^7 cells/mouse) were”, “shoulder of CB17/IcrJcl-Prkdc^scid mice under” for “shoulder of mice under”
Mice were euthanized 1, 4, 24, 48, 96, and 192 hours after administration. Thereafter, blood and each organ were recovered, and the mass and radioactivity of the organs were measured.
The results are shown in Table 13 (Mean value±standard deviation, n=3).

[3] = 1 h after administration, PC-3 tumor-transplanted mice

SMILES: O=C([O-])CN1CCN(C(CCC(=O)NCCCC[C@H](NC(=O)N[C@@H](CCC(=O)O)C(=O)O)C(=O)O)C(=O)[O-])CCN(CC(=O)[O-])CCN(C(CCC(=O)Nc2ccccc2)C(=O)[O-])CC1.[111In+3] (stereo partly drawn) [[^111In]In-PSMA-DB, reference compound]
- Blood ([1]; 1 h after administration): 3.33 ± 0.21 % ID/g
- Brain ([1]; 1 h after administration): 0.06 ± 0.01 % ID/g
- Heart ([1]; 1 h after administration): 0.87 ± 0.33 % ID/g
- Intestine ([1]; 1 h after administration): 0.59 ± 0.14 % ID/g
- Kidney ([1]; 1 h after administration): 59.2 ± 35.2 % ID/g
- LNCaP Tumor ([1]; 1 h after administration): 3.36 ± 0.04 % ID/g
- Liver ([1]; 1 h after administration): 0.91 ± 0.20 % ID/g
- Lung ([1]; 1 h after administration): 2.24 ± 0.60 % ID/g
- Muscle ([1]; 1 h after administration): 0.23 ± 0.68 % ID/g
- Pancreas ([1]; 1 h after administration): 0.74 ± 0.25 % ID/g
- Spleen ([1]; 1 h after administration): 3.05 ± 0.53 % ID/g
- Stomach (% ID) ([1]; 1 h after administration): 0.10 ± 0.04 % ID
- Blood ([1]; 4 h after administration): 2.00 ± 0.29 % ID/g
- Brain ([1]; 4 h after administration): 0.05 ± 0.00 % ID/g
- Heart ([1]; 4 h after administration): 0.60 ± 0.08 % ID/g
- Intestine ([1]; 4 h after administration): 1.05 ± 0.10 % ID/g
- Kidney ([1]; 4 h after administration): 22.7 ± 9.69 % ID/g
- LNCaP Tumor ([1]; 4 h after administration): 2.50 ± 0.50 % ID/g
- Liver ([1]; 4 h after administration): 0.95 ± 0.05 % ID/g
- Lung ([1]; 4 h after administration): 1.56 ± 0.07 % ID/g
- Muscle ([1]; 4 h after administration): 0.21 ± 0.04 % ID/g
- Pancreas ([1]; 4 h after administration): 0.54 ± 0.22 % ID/g
- Spleen ([1]; 4 h after administration): 2.39 ± 0.05 % ID/g
- Stomach (% ID) ([1]; 4 h after administration): 0.13 ± 0.03 % ID
- Blood ([1]; 24 h after administration): 0.68 ± 0.17 % ID/g
- Brain ([1]; 24 h after administration): 0.07 ± 0.02 % ID/g
- Heart ([1]; 24 h after administration): 0.43 ± 0.07 % ID/g
- Intestine ([1]; 24 h after administration): 1.00 ± 0.44 % ID/g
- Kidney ([1]; 24 h after administration): 13.2 ± 2.41 % ID/g
- LNCaP Tumor ([1]; 24 h after administration): 2.09 ± 0.39 % ID/g
- Liver ([1]; 24 h after administration): 1.55 ± 0.32 % ID/g
- Lung ([1]; 24 h after administration): 0.97 ± 0.15 % ID/g
- Muscle ([1]; 24 h after administration): 0.21 ± 0.07 % ID/g
- Pancreas ([1]; 24 h after administration): 0.71 ± 0.10 % ID/g
- Spleen ([1]; 24 h after administration): 3.37 ± 0.75 % ID/g
- Stomach (% ID) ([1]; 24 h after administration): 0.16 ± 0.05 % ID
- Blood ([1]; 48 h after administration): 0.27 ± 0.16 % ID/g
- Brain ([1]; 48 h after administration): 0.03 ± 0.02 % ID/g
- Heart ([1]; 48 h after administration): 0.32 ± 0.05 % ID/g
- Intestine ([1]; 48 h after administration): 0.79 ± 0.21 % ID/g
- Kidney ([1]; 48 h after administration): 8.58 ± 2.02 % ID/g
- LNCaP Tumor ([1]; 48 h after administration): 1.69 ± 0.77 % ID/g
- Liver ([1]; 48 h after administration): 1.28 ± 0.16 % ID/g
- Lung ([1]; 48 h after administration): 0.66 ± 0.24 % ID/g
- Muscle ([1]; 48 h after administration): 0.15 ± 0.06 % ID/g
- Pancreas ([1]; 48 h after administration): 0.71 ± 0.17 % ID/g
- Spleen ([1]; 48 h after administration): 2.63 ± 0.83 % ID/g
- Stomach (% ID) ([1]; 48 h after administration): 0.07 ± 0.02 % ID
- Blood ([1]; 96 h after administration): 0.14 ± 0.04 % ID/g
- Brain ([1]; 96 h after administration): 0.09 ± 0.05 % ID/g
- Heart ([1]; 96 h after administration): 0.40 ± 0.12 % ID/g
- Intestine ([1]; 96 h after administration): 0.41 ± 0.17 % ID/g
- Kidney ([1]; 96 h after administration): 7.04 ± 3.28 % ID/g
- LNCaP Tumor ([1]; 96 h after administration): 1.05 ± 0.03 % ID/g
- Liver ([1]; 96 h after administration): 1.59 ± 0.57 % ID/g
- Lung ([1]; 96 h after administration): 0.70 ± 0.15 % ID/g
- Muscle ([1]; 96 h after administration): 0.14 ± 0.08 % ID/g
- Pancreas ([1]; 96 h after administration): 0.85 ± 0.39 % ID/g
- Spleen ([1]; 96 h after administration): 2.82 ± 0.87 % ID/g
- Stomach (% ID) ([1]; 96 h after administration): 0.10 ± 0.03 % ID
- Blood ([1]; 192 h after administration): 0.07 ± 0.03 % ID/g
- Brain ([1]; 192 h after administration): 0.04 ± 0.00 % ID/g
- Heart ([1]; 192 h after administration): 0.33 ± 0.01 % ID/g
- Intestine ([1]; 192 h after administration): 0.13 ± 0.02 % ID/g
- Kidney ([1]; 192 h after administration): 3.47 ± 1.24 % ID/g
- LNCaP Tumor ([1]; 192 h after administration): 0.83 ± 0.11 % ID/g
- Liver ([1]; 192 h after administration): 1.20 ± 0.09 % ID/g
- Lung ([1]; 192 h after administration): 0.67 ± 0.05 % ID/g
- Muscle ([1]; 192 h after administration): 0.14 ± 0.09 % ID/g
- Pancreas ([1]; 192 h after administration): 1.04 ± 0.18 % ID/g
- Spleen ([1]; 192 h after administration): 3.46 ± 0.32 % ID/g
- Stomach (% ID) ([1]; 192 h after administration): 0.05 ± 0.00 % ID
- retention in blood / accumulation at the LNCaP tumor against the comparator (in words) ([1]; any time point): less accumulated
- tumor/kidney ratio compared with [^111In]In-PSMA-DA1 (in words) ([1]; mouse, in vivo): lower
- Blood [2, 3]: 1.92 ± 0.27 % ID/g
- Brain [2, 3]: 0.06 ± 0.00 % ID/g
- Heart [2, 3]: 0.49 ± 0.05 % ID/g
- Intestine [2, 3]: 0.48 ± 0.04 % ID/g
- Kidney [2, 3]: 49.5 ± 12.6 % ID/g
- Liver [2, 3]: 0.62 ± 0.03 % ID/g
- Lung [2, 3]: 1.36 ± 0.23 % ID/g
- Muscle [2, 3]: 0.21 ± 0.08 % ID/g
- PC-3 Tumor [2, 3]: 0.61 ± 0.06 % ID/g
- Pancreas [2, 3]: 0.44 ± 0.06 % ID/g
- Spleen [2, 3]: 2.57 ± 0.39 % ID/g
- Stomach (% ID) [2, 3]: 0.12 ± 0.04 % ID
- accumulation at the PC-3 tumor compared with the LNCaP tumor at the same time point (in words) ([2]; mouse, in vivo): less accumulated

Reference: patent US20240174622A1, “COMPOUND AND RADIOACTIVE LABELING COMPOUND” (NIHON MEDI-PHYSICS CO., LTD., priority 2021, published 2024)
